According to US8846653B2, “Delta-tocotrienol treatment and prevention of pancreatic cancer” (University of South Florida, priority 2006, dated 2014):

Columns and labels:
Assay type in all cases: cell-based, human
BXPC3 cells = test: MTT assay of BXPC3 cultures, single 50 μM dose; parameters: MTT assay result, run 1 / MTT assay result, run 2 / MTT assay result, run 3 / MTT assay result, run 4 / MTT assay result, run 5 / MTT assay result, run 6 / MTT assay result, run 7 / MTT assay result, av (average) / MTT assay result, av-blank / MTT assay result, av: unit not given here; conditions: BXPC3, 50 μM; for MTT assay result, av-blank: average minus blank
Procedure, shortened: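 Viability measured by MTT assay 48 or 120 hours after one 50 μM treatment with tocol-family compounds, geranylgeraniol, succinic acid or vehicle, with untreated cultures in parallel. BXPC3 cells grown in FBS-supplemented medium, 37° C, humidified 5% CO2.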

MiaPaCa-2 cells [1] = test: MTS assay of MiaPaCa2 cultures, single 50 μM dose; conditions: MiaPaCa2, 50 μM
Procedure, shortened: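 This MTS viability assay used MiaPaCa2 cultures treated once with 50 μM compound or vehicle, with an untreated culture grown in parallel for comparison. Cells were maintained in DMEM supplemented with 10% FBS, 1% penicillin-streptomycin and 1% L-glutamine at 37° C. under 5% CO2 and humidity.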

MiaPaCa-2 cells [2] = test: MTT assay of MiaPaCa2 cultures, single 50 μM dose; parameters: rel amt (relative value set to the control): unit not given here; conditions: MiaPaCa2, 50 μM; for MTT assay result, av-blank: average minus blank; for MTT assay result, av: average of 7 runs
Procedure, shortened: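 Viability measured by MTT 48 or 120 hours post-treatment, with a vehicle-only (ethanol-extracted olive oil) culture as control. MiaPaCa-2 cultures received one 50 μM exposure to a tocotrienol, tocopherol, tocopherol succinate, geranylgeraniol or succinic acid.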

**Q.** How did the “rel amt (relative value set to the control)” value (“relative value set” for short) (BXPC3 cells; 48 hours) turn out when alpha tocotrienol [T3 alpha] was run?
**A.** The value was 104.

**Q.** And the “MTT assay result, av-blank” value (BXPC3 cells; 48 hours)?
**A.** Its value is 0.236.

**Q.** What about the “MTT assay result, av (average)” value (BXPC3 cells; 48 hours, average of 7 runs) of the same substance?
**A.** The value was 0.285.

**Q.** And the “MTT assay result, run 1” value (BXPC3 cells; 48 hours)?
**A.** Its value is 0.279.

**Q.** And the “MTT assay result, run 2” value (BXPC3 cells; 48 hours)?
**A.** Its value is 0.275.

**Q.** And the “MTT assay result, run 3” value (BXPC3 cells; 48 hours)?
**A.** The value was 0.295.

**Q.** And the “MTT assay result, run 4” value (BXPC3 cells; 48 hours)?
**A.** Its value is 0.301.

**Q.** What about the “MTT assay result, run 5” value (BXPC3 cells; 48 hours) of the same substance?
**A.** Its value is 0.3.

**Q.** What about the “MTT assay result, run 6” value (BXPC3 cells; 48 hours) of the same substance?
**A.** Its value is 0.273.

**Q.** And the “MTT assay result, run 7” value (BXPC3 cells; 48 hours)?
**A.** The value was 0.275.

**Q.** And the “relative value set” value (BXPC3 cells; 120 hours (5 days))?
**A.** Its value is 97.

**Q.** What about the “MTT assay result, av-blank” value (BXPC3 cells; 120 hours (5 days)) of the same substance?
**A.** Its value is 0.558.

**Q.** And the “MTT assay result, av” value (BXPC3 cells; 120 hours (5 days), average of 7 runs)?
**A.** Its value is 0.613.

**Q.** And the “MTT assay result, run 1” value (BXPC3 cells; 120 hours (5 days))?
**A.** Its value is 0.584.

**Q.** What about the “MTT assay result, run 2” value (BXPC3 cells; 120 hours (5 days)) of the same substance?
**A.** The value was 0.637.

**Q.** And the “MTT assay result, run 3” value (BXPC3 cells; 120 hours (5 days))?
**A.** The value was 0.594.

**Q.** And the “MTT assay result, run 4” value (BXPC3 cells; 120 hours (5 days))?
**A.** The value was 0.63.

**Q.** What about the “MTT assay result, run 5” value (BXPC3 cells; 120 hours (5 days)) of the same substance?
**A.** Its value is 0.62.

**Q.** And the “MTT assay result, run 6” value (BXPC3 cells; 120 hours (5 days))?
**A.** Its value is 0.61.

**Q.** And the “MTT assay result, run 7” value (BXPC3 cells; 120 hours (5 days))?
**A.** The value was 0.618.

**Q.** And the “relative value set” value (MiaPaCa-2 cells [1]; 24 hours)?
**A.** The value was 116.

**Q.** And the “MTS assay result, run 1” value (MiaPaCa-2 cells [1]; 24 hours)?
**A.** Its value is 0.274.

**Q.** And the “MTS assay result, run 2” value (MiaPaCa-2 cells [1]; 24 hours)?
**A.** The value was 0.296.

**Q.** And the “MTS assay result, run 3” value (MiaPaCa-2 cells [1]; 24 hours)?
**A.** Its value is 0.293.

**Q.** What about the “MTS assay result, run 4” value (MiaPaCa-2 cells [1]; 24 hours) of the same substance?
**A.** The value was 0.216.

**Q.** And the “MTS assay result, run 5” value (MiaPaCa-2 cells [1]; 24 hours)?
**A.** The value was 0.245.

**Q.** And the “MTS assay result, run 6” value (MiaPaCa-2 cells [1]; 24 hours)?
**A.** The value was 0.258.

**Q.** What about the “MTS assay result, run 7” value (MiaPaCa-2 cells [1]; 24 hours) of the same substance?
**A.** Its value is 0.243.

**Q.** What about the “MTS assay result, run 8” value (MiaPaCa-2 cells [1]; 24 hours) of the same substance?
**A.** Its value is 0.239.

**Q.** And the “MTS assay result, run 9” value (MiaPaCa-2 cells [1]; 24 hours)?
**A.** Its value is 0.258.

**Q.** What about the “relative value set” value (MiaPaCa-2 cells [1]; 48 hours) of the same substance?
**A.** Its value is 93.

**Q.** What about the “MTS assay result, run 1” value (MiaPaCa-2 cells [1]; 48 hours) of the same substance?
**A.** The value was 0.336.

**Q.** What about the “MTS assay result, run 2” value (MiaPaCa-2 cells [1]; 48 hours) of the same substance?
**A.** The value was 0.325.

**Q.** And the “MTS assay result, run 3” value (MiaPaCa-2 cells [1]; 48 hours)?
**A.** Its value is 0.343.

**Q.** And the “MTS assay result, run 4” value (MiaPaCa-2 cells [1]; 48 hours)?
**A.** Its value is 0.327.

**Q.** And the “MTS assay result, run 5” value (MiaPaCa-2 cells [1]; 48 hours)?
**A.** The value was 0.39.

**Q.** What about the “MTS assay result, run 6” value (MiaPaCa-2 cells [1]; 48 hours) of the same substance?
**A.** The value was 0.376.

**Q.** And the “MTS assay result, run 7” value (MiaPaCa-2 cells [1]; 48 hours)?
**A.** Its value is 0.322.

**Q.** And the “MTS assay result, run 8” value (MiaPaCa-2 cells [1]; 48 hours)?
**A.** The value was 0.286.

**Q.** And the “MTS assay result, run 9” value (MiaPaCa-2 cells [1]; 48 hours)?
**A.** The value was 0.338.

**Q.** What about the “relative value set” value (MiaPaCa-2 cells [1]; 72 hours) of the same substance?
**A.** Its value is 61.

**Q.** And the “MTS assay result, run 1” value (MiaPaCa-2 cells [1]; 72 hours)?
**A.** The value was 0.279.

**Q.** And the “MTS assay result, run 2” value (MiaPaCa-2 cells [1]; 72 hours)?
**A.** Its value is 0.282.

**Q.** What about the “MTS assay result, run 3” value (MiaPaCa-2 cells [1]; 72 hours) of the same substance?
**A.** The value was 0.294.

**Q.** What about the “MTS assay result, run 4” value (MiaPaCa-2 cells [1]; 72 hours) of the same substance?
**A.** The value was 0.238.

**Q.** And the “MTS assay result, run 5” value (MiaPaCa-2 cells [1]; 72 hours)?
**A.** The value was 0.302.

**Q.** What about the “MTS assay result, run 6” value (MiaPaCa-2 cells [1]; 72 hours) of the same substance?
**A.** The value was 0.279.

**Q.** What about the “MTS assay result, run 7” value (MiaPaCa-2 cells [1]; 72 hours) of the same substance?
**A.** Its value is 0.254.

**Q.** And the “MTS assay result, run 8” value (MiaPaCa-2 cells [1]; 72 hours)?
**A.** Its value is 0.254.

**Q.** What about the “MTS assay result, run 9” value (MiaPaCa-2 cells [1]; 72 hours) of the same substance?
**A.** The value was 0.273.

**Q.** What about the “relative value set” value (MiaPaCa-2 cells [2]; 48 hours) of the same substance?
**A.** Its value is 94.

**Q.** And the “MTT assay result, av-blank” value (MiaPaCa-2 cells [2]; 48 hours)?
**A.** Its value is 0.292.

**Q.** What about the “MTT assay result, av” value (MiaPaCa-2 cells [2]; 48 hours) of the same substance?
**A.** Its value is 0.338.

**Q.** And the “MTT assay result, run 1” value (MiaPaCa-2 cells [2]; 48 hours)?
**A.** Its value is 0.349.

**Q.** And the “MTT assay result, run 2” value (MiaPaCa-2 cells [2]; 48 hours)?
**A.** Its value is 0.341.

**Q.** What about the “MTT assay result, run 3” value (MiaPaCa-2 cells [2]; 48 hours) of the same substance?
**A.** The value was 0.356.

**Q.** What about the “MTT assay result, run 4” value (MiaPaCa-2 cells [2]; 48 hours) of the same substance?
**A.** Its value is 0.329.

**Q.** What about the “MTT assay result, run 5” value (MiaPaCa-2 cells [2]; 48 hours) of the same substance?
**A.** Its value is 0.349.

**Q.** And the “MTT assay result, run 6” value (MiaPaCa-2 cells [2]; 48 hours)?
**A.** Its value is 0.316.

**Q.** What about the “MTT assay result, run 7” value (MiaPaCa-2 cells [2]; 48 hours) of the same substance?
**A.** The value was 0.323.

**Q.** What about the “relative value set” value (MiaPaCa-2 cells [2]; 120 hours (5 days)) of the same substance?
**A.** The value was 84.

**Q.** What about the “MTT assay result, av-blank” value (MiaPaCa-2 cells [2]; 120 hours (5 days)) of the same substance?
**A.** The value was 1.528.

**Q.** What about the “MTT assay result, av” value (MiaPaCa-2 cells [2]; 120 hours (5 days)) of the same substance?
**A.** The value was 1.580.

**Q.** What about the “MTT assay result, run 1” value (MiaPaCa-2 cells [2]; 120 hours (5 days)) of the same substance?
**A.** The value was 1.497.

**Q.** What about the “MTT assay result, run 2” value (MiaPaCa-2 cells [2]; 120 hours (5 days)) of the same substance?
**A.** The value was 1.573.

**Q.** And the “MTT assay result, run 3” value (MiaPaCa-2 cells [2]; 120 hours (5 days))?
**A.** The value was 1.569.

**Q.** And the “MTT assay result, run 4” value (MiaPaCa-2 cells [2]; 120 hours (5 days))?
**A.** The value was 1.55.

**Q.** And the “MTT assay result, run 5” value (MiaPaCa-2 cells [2]; 120 hours (5 days))?
**A.** The value was 1.811.

**Q.** What about the “MTT assay result, run 6” value (MiaPaCa-2 cells [2]; 120 hours (5 days)) of the same substance?
**A.** Its value is 1.589.

**Q.** And the “MTT assay result, run 7” value (MiaPaCa-2 cells [2]; 120 hours (5 days))?
**A.** The value was 1.47.
